Measured values published in PubChem BioAssay AID330 (DTP/NCI, 2004).
Several values for one entry are separate records, joined by “and”; a condition that tells them apart may be missing. Equal values may be shown once. Toxic doses and inconclusive results are not listed. Peptide text beside a SMILES is read from it. * marks the point of attachment. Boc = CC(C)(C)OC(=O)*; NHNH2 = NN*

System: P388 leukemia ip, CD2F1 mice, survival T/C
Assay: NCI In Vivo Anticancer Drug Screen. Data for tumor model P388 Leukemia (intraperitoneal) in CD2F1 (CDF1) mice
Settings: endpoint: median survival time, higher = longer survival
Method in brief: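 Mice carrying the transplanted tumor received test compound or vehicle. Survival was recorded in each group, and the value is the treated-group measurement divided by that of the vehicle-treated control group.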

[1] = dose: 12.5 mg/kg/injection, schedule: Q01DX005 (ip), vehicle: Klucel (hydroxypropylcellulose) (HPC)
[2] = dose: 50.0 mg/kg/injection, schedule: Q01DX005 (ip), vehicle: Klucel (hydroxypropylcellulose) (HPC)
[3] = dose: 12.5 mg/kg/injection, schedule: Q01DX009 (ip), vehicle: saline with Tween-80
[4] = dose: 25.0 mg/kg/injection, schedule: Q01DX009 (ip), vehicle: saline with Tween-80
[5] = dose: 50.0 mg/kg/injection, schedule: Q01DX005 (ip), vehicle: saline with Tween-80
[6] = dose: 100.0 mg/kg/injection, schedule: Q01DX005 (ip), vehicle: saline with Tween-80
[7] = dose: 200.0 mg/kg/injection, schedule: Q01DX005 (ip), vehicle: saline with Tween-80
[8] = dose: 50.0 mg/kg/injection, schedule: Q01DX009 (ip), vehicle: saline with Tween-80
[9] = dose: 100.0 mg/kg/injection, schedule: Q01DX009 (ip), vehicle: saline with Tween-80
[10] = dose: 200.0 mg/kg/injection, schedule: Q01DX009 (ip), vehicle: saline with Tween-80
[11] = dose: 100.0 mg/kg/injection, schedule: Q01DX005 (ip), vehicle: Klucel (hydroxypropylcellulose) (HPC)
[12] = dose: 200.0 mg/kg/injection, schedule: Q01DX005 (ip), vehicle: Klucel (hydroxypropylcellulose) (HPC)

Question: Cc1ccc(S(=O)(=O)NNC(=O)CCC(=O)NS(C)(=O)=O)cc1 was tested. Which T/C (dose: 100.0 mg/kg/injection, schedule: Q01DX001 (ip), vehicle: saline with Tween-80) did it give?
Answer: 100 % of control

Question: What about the T/C (dose: 200.0 mg/kg/injection, schedule: Q01DX001 (ip), vehicle: saline with Tween-80) of the same molecule?
Answer: 97 % of control

Question: What about the T/C (dose: 400.0 mg/kg/injection, schedule: Q01DX001 (ip), vehicle: saline with Tween-80) of the same molecule?
Answer: 93 % of control

Question: CC1S/C(=N\N=C\c2ccc(Cl)cc2)N=C1c1c(O)c2ccccc2oc1=O (configuration not stated) was tested. Which T/C (dose: 60.0 mg/kg/injection, schedule: Q01DX005 (ip), vehicle: Klucel (hydroxypropylcellulose) (HPC)) did it give?
Answer: 93 % of control

Question: What about the T/C (dose: 60.0 mg/kg/injection, schedule: Q02DX002 (ip), vehicle: Klucel (hydroxypropylcellulose) (HPC)) of the same molecule?
Answer: 91 % of control

Question: And the T/C (dose: 120.0 mg/kg/injection, schedule: Q01DX005 (ip), vehicle: Klucel (hydroxypropylcellulose) (HPC))?
Answer: 91 % of control

Question: What about the T/C (dose: 120.0 mg/kg/injection, schedule: Q02DX002 (ip), vehicle: Klucel (hydroxypropylcellulose) (HPC)) of the same molecule?
Answer: 94 % of control

Question: And the T/C (dose: 240.0 mg/kg/injection, schedule: Q01DX005 (ip), vehicle: Klucel (hydroxypropylcellulose) (HPC))?
Answer: 86 % of control

Question: What about the T/C (dose: 240.0 mg/kg/injection, schedule: Q02DX002 (ip), vehicle: Klucel (hydroxypropylcellulose) (HPC)) of the same molecule?
Answer: 94 % of control

Question: With CC(O)CC1C=CCC(CC(O)c2ccccc2)N1C (configuration not stated) as the molecule, how does the T/C [1] read?
Answer: 102 % of control

Question: And the T/C (dose: 25.0 mg/kg/injection, schedule: Q01DX005 (ip), vehicle: Klucel (hydroxypropylcellulose) (HPC))?
Answer: 100 % of control

Question: And the T/C [2]?
Answer: 105 % of control

Question: What does the source list for CN(C)CCN1c2ccccc2Sc2ccc3ccccc3c21?
Answer: T/C (dose: 50.0 mg/kg/injection, schedule: Q01DX005 (ip), vehicle: saline + Tween-80 + alcohol): 104 % of control; T/C (dose: 100.0 mg/kg/injection, schedule: Q01DX005 (ip), vehicle: saline + Tween-80 + alcohol): 107 % of control; T/C (dose: 200.0 mg/kg/injection, schedule: Q01DX005 (ip), vehicle: saline + Tween-80 + alcohol): 107 % of control

Question: How did the T/C (dose: 1.56 mg/kg/injection, schedule: Q01DX005 (ip), vehicle: Klucel (hydroxypropylcellulose) (HPC)) turn out when CCN=P1(N(C(C)C)C(C)C)N(CC)N=NN1C(C)(C)C (configuration not stated) was run?
Answer: 102 % of control

Question: And the T/C (dose: 3.12 mg/kg/injection, schedule: Q01DX005 (ip), vehicle: Klucel (hydroxypropylcellulose) (HPC))?
Answer: 104 % of control

Question: What about the T/C (dose: 6.25 mg/kg/injection, schedule: Q01DX005 (ip), vehicle: Klucel (hydroxypropylcellulose) (HPC)) of the same molecule?
Answer: 100 % of control

Question: What about the T/C [1] of the same molecule?
Answer: 104 % of control

Question: What about the T/C [2] of the same molecule?
Answer: 111 % of control

Question: Which T/C (dose: 8.75 mg/kg/injection, schedule: Q01DX005 (ip), vehicle: Klucel (hydroxypropylcellulose) (HPC)) does the source give for CC1C(c2ccc3c(c2)OCO3)CC(Cl)CC12C=C1OCOC1=CC2=O (configuration not stated) here?
Answer: 101 % of control

Question: And the T/C (dose: 17.5 mg/kg/injection, schedule: Q01DX005 (ip), vehicle: Klucel (hydroxypropylcellulose) (HPC))?
Answer: 101 % of control

Question: And the T/C (dose: 35.0 mg/kg/injection, schedule: Q01DX005 (ip), vehicle: Klucel (hydroxypropylcellulose) (HPC))?
Answer: 105 % of control

Question: Which results are given for O=P(c1ccccc1)(c1ccccc1)c1ccccc1.O=P(c1ccccc1)(c1ccccc1)c1ccccc1.O=P(c1ccccc1)(c1ccccc1)c1ccccc1.O=P(c1ccccc1)(c1ccccc1)c1ccccc1.[Ce+3].[O-][Cl+3]([O-])([O-])O?
Answer: T/C (dose: 50.0 mg/kg/injection, schedule: Q01DX009 (ip), vehicle: saline + Tween-80 + alcohol): 96 % of control; T/C (dose: 100.0 mg/kg/injection, schedule: Q01DX009 (ip), vehicle: saline + Tween-80 + alcohol): 89 % of control; T/C (dose: 200.0 mg/kg/injection, schedule: Q01DX009 (ip), vehicle: saline + Tween-80 + alcohol): 87 % of control

Question: For CCCCCCCCCCCCCCCC[N+](C)(C)CCOC(C)=O, which T/C [3] is on record?
Answer: 109 % of control

Question: And the T/C (dose: 12.5 mg/kg/injection, schedule: Q01DX009 (ip), vehicle: saline)?
Answer: 111 % of control

Question: And the T/C [4]?
Answer: 109 % of control

Question: And the T/C (dose: 25.0 mg/kg/injection, schedule: Q01DX009 (ip), vehicle: saline)?
Answer: 100 % of control

Question: With CC(=O)NCc1cc([N+](=O)[O-])ccc1O as the molecule, how does the T/C [5] read?
Answer: 101 % of control

Question: What about the T/C [6] of the same molecule?
Answer: 94 % of control

Question: What about the T/C [7] of the same molecule?
Answer: 99 % of control

Question: Which results are given for COC(=O)c1cc(O)c2c(c1C(=O)OC)C[C@H]1[C@@H]3CCC4=CC(=O)CC[C@]4(C)[C@H]3CC[C@]21C?
Answer: T/C (dose: 1.5 mg/kg/injection, schedule: Q01DX005 (ip), vehicle: saline with Tween-80): 93 % of control; T/C (dose: 3.0 mg/kg/injection, schedule: Q01DX005 (ip), vehicle: saline with Tween-80): 91 % of control; T/C (dose: 6.25 mg/kg/injection, schedule: Q01DX005 (ip), vehicle: saline with Tween-80): 92 % of control; T/C [7]: 86 % of control

Question: O=S(Cc1ccc2c(c1)OCO2)c1ccccc1 (configuration not stated) was tested. Which T/C (dose: 100.0 mg/kg/injection, schedule: Q01DX001 (ip), vehicle: Klucel (hydroxypropylcellulose) (HPC)) did it give?
Answer: 101 % of control

Question: What about the T/C (dose: 200.0 mg/kg/injection, schedule: Q01DX001 (ip), vehicle: Klucel (hydroxypropylcellulose) (HPC)) of the same molecule?
Answer: 100 % of control

Question: What about the T/C (dose: 400.0 mg/kg/injection, schedule: Q01DX001 (ip), vehicle: Klucel (hydroxypropylcellulose) (HPC)) of the same molecule?
Answer: 100 % of control

Question: With CC(C)CCc1c(N)nc(N)[nH]c1=O as the molecule, how does the T/C (dose: 12.5 mg/kg/injection, schedule: Q01DX005 (ip), vehicle: saline with Tween-80) read?
Answer: 101 % of control

Question: What about the T/C (dose: 25.0 mg/kg/injection, schedule: Q01DX005 (ip), vehicle: saline with Tween-80) of the same molecule?
Answer: 97 % of control

Question: And the T/C [5]?
Answer: 97 % of control

Question: What does the source list for CC(C)/C=C1\C(=O)NCC(=O)N1Cc1ccccc1?
Answer: T/C (dose: 75.0 mg/kg/injection, schedule: Q01DX001 (ip), vehicle: Klucel (hydroxypropylcellulose) (HPC)): 103 % of control; T/C (dose: 150.0 mg/kg/injection, schedule: Q01DX001 (ip), vehicle: Klucel (hydroxypropylcellulose) (HPC)): 100 % of control; T/C (dose: 300.0 mg/kg/injection, schedule: Q01DX001 (ip), vehicle: Klucel (hydroxypropylcellulose) (HPC)): 94 % of control

Question: CC1(C)NC(=O)N(Br)C1=O was tested. Which T/C [8] did it give?
Answer: 104 % of control

Question: And the T/C [9]?
Answer: 100 % of control

Question: And the T/C [10]?
Answer: 104 % of control

Question: Which T/C (dose: 60.0 mg/kg/injection, schedule: Q01DX005 (ip), vehicle: saline with Tween-80) does the source give for C/C(CCl)=N/NC1=NC(c2ccccc2Cl)P(=O)(NCCCNP2(=O)SC(N/N=C(/C)CCl)=NC2c2ccccc2Cl)S1 (configuration not stated) here?
Answer: 99 % of control

Question: And the T/C (dose: 120.0 mg/kg/injection, schedule: Q01DX005 (ip), vehicle: saline with Tween-80)?
Answer: 98 % of control

Question: What about the T/C (dose: 240.0 mg/kg/injection, schedule: Q01DX005 (ip), vehicle: saline with Tween-80) of the same molecule?
Answer: 93 % of control

Question: Which T/C (dose: 0.78 mg/kg/injection, schedule: Q04DX002 (ip), vehicle: saline with Tween-80) does the source give for CN=C(N)N/N=C(\C)c1ccc2c(c1)Cc1cc(/C(C)=N/NC(N)=NC)ccc1-2 here?
Answer: 124 % of control

Question: And the T/C (dose: 6.25 mg/kg/injection, schedule: Q04DX002 (ip), vehicle: saline with Tween-80)?
Answer: 154 % of control

Question: And the T/C (dose: 12.5 mg/kg/injection, schedule: Q04DX002 (ip), vehicle: saline with Tween-80)?
Answer: 123 % of control

Question: What does the source list for COc1ccc(/C=C/c2ccc3ccccc3[n+]2C)cc1?
Answer: T/C (dose: 11.0 mg/kg/injection, schedule: Q01DX009 (ip), vehicle: saline with Tween-80): 122 % of control; T/C [3]: 124 % of control; T/C [4]: 122 % of control

Question: How did the T/C [4] turn out when CC(=O)OC1(CSc2ccccc2)CCCCC1 was run?
Answer: 89 % of control

Question: And the T/C [8]?
Answer: 101 % of control and 102 % of control

Question: And the T/C [9]?
Answer: 104 % of control and 109 % of control

Question: What about the T/C [10] of the same molecule?
Answer: 108 % of control and 111 % of control

Question: What about the T/C (dose: 400.0 mg/kg/injection, schedule: Q01DX009 (ip), vehicle: saline with Tween-80) of the same molecule?
Answer: 111 % of control

Question: How did the T/C [2] turn out when O=[N+]([O-])c1ccccc1/C=C\c1ccccn1 was run?
Answer: 104 % of control

Question: And the T/C [11]?
Answer: 101 % of control

Question: And the T/C [12]?
Answer: 101 % of control

Question: For CC(C)(C)OC(=O)NC(Cc1ccccc1)C(=O)NC(CO)C(=O)NN (stereo not drawn) (Boc-Phe-Ser-NHNH2; configuration not given here), which T/C [2] is on record?
Answer: 97 % of control

Question: And the T/C [11]?
Answer: 95 % of control

Question: And the T/C [12]?
Answer: 105 % of control

Question: What does the source list for O=C(Nc1ccc(Cl)cc1C(F)(F)F)OCCCc1ccncc1?
Answer: T/C (dose: 50.0 mg/kg/injection, schedule: Q01DX009 (ip), vehicle: saline): 98 % of control; T/C (dose: 100.0 mg/kg/injection, schedule: Q01DX009 (ip), vehicle: saline): 91 % of control; T/C (dose: 200.0 mg/kg/injection, schedule: Q01DX009 (ip), vehicle: saline): 91 % of control

Question: For COc1ccc(Cc2cc3c(cc2OCC(=O)N(C)C)OCO3)cc1, which T/C [2] is on record?
Answer: 103 % of control

Question: What about the T/C [11] of the same molecule?
Answer: 98 % of control

Question: And the T/C [12]?
Answer: 96 % of control

Question: Which results are given for O=C1C=CC(=Nc2ccc3c(c2)C(=O)c2ccccc2-3)O1?
Answer: T/C [5]: 111 % of control; T/C [6]: 115 % of control
